Target: T1, MR (Homo sapiens, UniProt P08235)
T1 construct: expressed in transfected cells; host or cells: Huh7 human liver cells (ATCC), transient transfection with FuGENE 6
T1 sequence (P08235 726-964 limits assumed): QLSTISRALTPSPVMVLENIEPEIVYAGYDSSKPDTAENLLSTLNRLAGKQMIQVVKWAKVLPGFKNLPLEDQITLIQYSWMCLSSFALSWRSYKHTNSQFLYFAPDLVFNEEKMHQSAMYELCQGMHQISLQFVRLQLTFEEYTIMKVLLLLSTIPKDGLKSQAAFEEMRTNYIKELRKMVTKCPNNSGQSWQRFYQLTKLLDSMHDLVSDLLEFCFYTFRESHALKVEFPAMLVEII
Assay: Cell-based reporter assay (Gal4-MR-LBD luciferase, antagonist mode)
Settings: not given
Protocol: To measure the ability of test compound in the present invention to modulate the activity of MR (agonize, antagonize, partially agonize, partially antagonize), bioassays were performed that measured the modulation of reporter gene expression. Cells were transiently transfected with a luciferase reporter gene under the control of a Gal4 response element (Gal4-RE-luc) and a plasmid containing the Gal4 DNA binding domain fused to the MR ligand binding domain (Gal4-MR-LBD). Agonists can bind to and activate the MR-LBD, which activates the expression of the luciferase reporter gene through interaction with the Gal4 response element. […] Antagonists can compete for binding to the NHR-LBD and decrease the agonist-induced transcriptional activity of the reporter gene. Therefore, measurement of luciferase activity allowed quantitative determinations of the reporter transcription in the presence of either agonists or competitive antagonists.
The final concentration of DMSO in the test plate was 0.5%. Following an overnight incubation with compound, 25 μL of Steady-Glow™ lysis buffer with luciferase substrate (Promega Corporation, E2550) was added directly to the cells. After a 30-minute incubation to completely lyse the cells, the microplates were counted in an Envision™ Multilabel Reader (Perkin Elmer) in single photon counting mode.

| IC50 | Compound |
| --- | --- |
| 63.6 nM | C[C@H]1CN(c2ccc3c(n2)NC(=O)CO3)[C@@H](c2ccccc2F)CO1 (racemic) [Example 7, (±)-6-(cis-5-(2-fluorophenyl)-2-methylmorpholino)-2H-pyrido[3,2-b][1,4]oxazin-3(4H)-one] |
| 3050 nM | CC1CN(c2ccc3c(n2)NC(=O)CO3)CCO1 (racemic) [Example 17, 6-(2-methylmorpholino)-2H-pyrido[3,2-b][1,4]oxazin-3(4H)-one] |
| 111 nM | C[C@H]1CN(c2cc3c(cn2)OCC(=O)N3)[C@@H](c2ccccc2F)CO1 (racemic) [Example 32, (±)-7-(cis-5-(2-fluorophenyl)-2-methylmorpholino)-1H-pyrido[3,4-b][1,4]oxazin-2(3H)-one] |
| 146 nM | C[C@H]1CN(c2ncc3c(n2)NC(=O)CO3)[C@@H](c2ccccc2F)CO1 (racemic) [Example 34, (±)-2-(cis-5-(2-fluorophenyl)-2-methylmorpholino)-6H-pyrimido[5,4-b][1,4]oxazin-7(8H)-one] |
| 272 nM | C[C@H]1CN(c2cc3c(cn2)OCC(=O)N3)[C@@H](c2cccc(F)c2)CO1 (racemic) [Example 50, (±)-7-(cis-5-(3-fluorophenyl)-2-methylmorpholino)-1H-pyrido[3,4-b][1,4]oxazin-2(3H)-one] |
| 537 nM | C[C@H]1CN(c2ncc3c(n2)NC(=O)CO3)[C@@H](c2cccc(F)c2)CO1 (racemic) [Example 51, (±)-2-(cis-5-(3-fluorophenyl)-2-methylmorpholino)-6H-pyrimido[5,4-b][1,4]oxazin-7(8H)-one] |
| 7910 nM | COc1ccccc1[C@H]1CO[C@@H](C)CN1c1cc2c(cn1)OCC(=O)N2 (racemic) [Example 62, (±)-7-(cis-5-(2-methoxyphenyl)-2-methylmorpholino)-1H-pyrido[3,4-b][1,4]oxazin-2(3H)-one] |
| 449 nM | C[C@H]1CN(c2ncc3c(n2)NC(=O)CO3)[C@@H](c2ccccc2Cl)CO1 (racemic) [Example 64, (±)-2-(cis-5-(2-chlorophenyl)-2-methylmorpholino)-6H-pyrimido[5,4-b][1,4]oxazin-7(8H)-one] |
| 631 nM | C[C@H]1CN(c2cc3c(cn2)OCC(=O)N3)[C@@H](c2ccccc2Cl)CO1 (racemic) [Example 65, (±)-7-(cis-5-(2-chlorophenyl)-2-methylmorpholino)-1H-pyrido[3,4-b][1,4]oxazin-2(3H)-one] |
| 451 nM | C[C@H]1CN(c2ccc3c(n2)NC(=O)CO3)[C@@H](c2ccccc2Cl)CO1 (racemic) [Example 66, (±)-6-(cis-5-(2-chlorophenyl)-2-methylmorpholino)-2H-pyrido[3,2-b][1,4]oxazin-3(4H)-one] |
| 1100 nM | O=C1COc2ccc(N3CCOC[C@H]3c3ccc(F)cc3)nc2N1 (single isomer, unassigned) [Example 14] |
| 2710 nM | C[C@H]1CN(c2ccc3c(n2)NC(=O)CO3)CCO1 (single isomer, unassigned) [Example 18] |
| 5610 nM | C[C@@H]1CN(c2ccc3c(n2)NC(=O)CO3)CCO1 (single isomer, unassigned) [Example 19] |
| 885 nM | Cc1cc(N2CCOC[C@H]2c2ccccc2)cc2c1OCC(=O)N2 (single isomer, unassigned) [Example 22] |
| 284 nM | C[C@@H]1CN(c2ccc3c(n2)NC(=O)CO3)[C@@H]2c3ccccc3C[C@@H]2O1 (single isomer, unassigned) [Example 23] |
| 1770 nM | C[C@H]1CN(c2ccc3c(n2)NC(=O)CO3)[C@@H]2c3ccccc3C[C@@H]2O1 (single isomer, unassigned) [Example 24] |
| 53.9 nM | C[C@@H]1CN(c2cc3c(cn2)OCC(=O)N3)[C@H](c2ccccc2F)CO1 (single isomer, unassigned) [Example 33] |
| 104 nM | C[C@@H]1CN(c2ncc3c(n2)NC(=O)CO3)[C@H](c2ccccc2F)CO1 (single isomer, unassigned) [Example 35] |
| 135 nM | C[C@@H]1CN(c2ccc3c(n2)NC(=O)CO3)[C@H](c2ccccc2Cl)CO1 (single isomer, unassigned) [Example 67] |

| IC50 | Compound |
| --- | --- |
| 266 nM | C[C@@H]1CN(c2ncc3c(n2)NC(=O)CO3)[C@H](c2ccccc2)CO1 [Example 2, 2-((2R,5R)-2-methyl-5-phenylmorpholino)-6H-pyrimido[5,4-b][1,4]oxazin-7(8H)-one] |
| 157 nM | C[C@@H]1CN(c2ccc3ncc(=O)[nH]c3c2)[C@H](c2ccccc2)CO1 [Example 3, 7-((2R,5R)-2-methyl-5-phenylmorpholino)quinoxalin-2(1H)-one] |
| 306 nM | C[C@@H]1CN(c2ccc3c(c2)NC(=O)CS3)[C@H](c2ccccc2)CO1 [Example 4, 6-((2R,5R)-2-methyl-5-phenylmorpholino)-2H-benzo[b][1,4]thiazin-3(4H)-one] |
| 174 nM | Cc1cc(N2C[C@@H](C)OC[C@H]2c2ccccc2)nc2c1OCC(=O)N2 [Example 5, 8-methyl-6-((2R,5R)-2-methyl-5-phenylmorpholino)-2H-pyrido[3,2-b][1,4]oxazin-3(4H)-one] |
| 977 nM | C[C@@H]1CN(c2ccc3c(n2)NCCO3)[C@H](c2ccccc2)CO1 [Example 6, 6-[(2R,5R)-2-methyl-5-phenylmorpholin-4-yl]-3,4-dihydro-2H-pyrido[3,2-b][1,4]oxazine] |
| 407 nM | CC1(C)CN(c2ccc3c(n2)NC(=O)CO3)[C@H](c2ccccc2)CO1 [Example 13, (R)-6-(2,2-dimethyl-5-phenylmorpholino)-2H-pyrido[3,2-b][1,4]oxazin-3(4H)-one] |
| 1970 nM | O=C1COc2ccc(N3CCOC[C@H]3c3ccccc3)nc2N1 [Example 16, (R)-6-(3-phenylmorpholino)-2H-pyrido[3,2-b][1,4]oxazin-3(4H)-one] |
| 3000 nM | O=C1COc2ccc(N3CCO[C@H]4Cc5ccccc5[C@H]43)nc2N1 [Example 20, 6-((4aR,9aS)-2,3,9,9a-tetrahydroindeno[2,1-b][1,4]oxazin-4(4aH)-yl)-2H-pyrido[3,2-b][1,4]oxazin-3(4H)-one] |
| 583 nM | O=C1COc2ccc(N3CCOC[C@H]3c3ccccc3)cc2N1 [Example 21, (R)-6-(3-phenylmorpholino)-2H-benzo[b][1,4]oxazin-3(4H)-one] |
| 798 nM | C[C@@H]1CN(c2ccc3c(n2)NC(=O)CO3)C[C@H](C)O1 [Example 25, 6-(cis-2,6-dimethylmorpholino)-2H-pyrido[3,2-b][1,4]oxazin-3(4H)-one] |
| 3370 nM | CCC1CN(c2ccc3c(n2)NC(=O)CO3)CCO1 (stereo not shown) [Example 26, 6-(2-ethylmorpholino)-2H-pyrido[3,2-b][1,4]oxazin-3(4H)-one] |
| 1230 nM | C[C@@H]1CN(c2cccc(NS(C)(=O)=O)n2)[C@H](c2ccccc2)CO1 [Example 27, N-(6-((2R,5R)-2-methyl-5-phenylmorpholino)pyridin-2-yl)methanesulfonamide] |
| 24 nM | C[C@@H]1CN(c2ccc3c(c2)NC(=O)CO3)[C@H](c2ccccc2)CO1 [Example 28, 6-((2R,5R)-2-methyl-5-phenylmorpholino)-2H-benzo[b][1,4]oxazin-3(4H)-one] |
| 9560 nM | C[C@@H]1CN(c2ccc3c(n2)NC(=O)C(F)(F)O3)[C@H](c2ccccc2)CO1 [Example 30, 2,2-difluoro-6-((2R,5R)-2-methyl-5-phenylmorpholino)-2H-pyrido[3,2-b][1,4]oxazin-3(4H)-one] |
| 913 nM | O=C1COc2ccc(N3C[C@@H](C4CC4)OC[C@H]3c3ccccc3)nc2N1 [Example 31, 6-((2R,5R)-2-cyclopropyl-5-phenylmorpholino)-2H-pyrido[3,2-b][1,4]oxazin-3(4H)-one] |
| 1740 nM | O=C1COc2ccc(N3CCOCC34CCc3ccccc34)nc2N1 (stereo not shown) [Example 36, 6-(2,3-dihydrospiro[indene-1,3′-morpholin]-4′-yl)-2H-pyrido[3,2-b][1,4]oxazin-3(4H)-one] |
| 1440 nM | C[C@@H]1CN(c2nc3c(cc2F)OCC(=O)N3)[C@H](c2ccccc2)CO1 [Example 37, 7-fluoro-6-((2R,5R)-2-methyl-5-phenylmorpholino)-2H-pyrido[3,2-b][1,4]oxazin-3(4H)-one] |
| 4970 nM | CC1(c2ccccc2)CN(c2ccc3c(c2)NC(=O)CO3)CCO1 (stereo not shown) [Example 38, 6-(2-methyl-2-phenylmorpholino)-2H-benzo[b][1,4]oxazin-3(4H)-one] |
| 86.7 nM | O=C1COc2ccc(N3C[C@@H](CF)OC[C@H]3c3ccccc3)nc2N1 [Example 39, 6-((2S,5R)-2-(fluoromethyl)-5-phenylmorpholino)-2H-pyrido[3,2-b][1,4]oxazin-3(4H)-one] |

| Compound | IC50 |
| --- | --- |
| C[C@@H]1CN(c2ccc3c(n2)NC(=O)CO3)[C@H](c2ccccc2F)CO1 (single isomer, unassigned) [Example 8] | 33.4 nM |

Same assay, conditions: antagonist mode; decrease of EC80 aldosterone signal by 50%; Huh7 cells transfected with Gal4-MR-LBD and Gal4-RE-luc

| Compound | IC50 |
| --- | --- |
| 6-((2S,5R)-2-(methoxymethyl)-5-phenylmorpholino)-2H-pyrido[3,2-b][1,4]oxazin-3(4H)-one [Example 49] | 358 nM |
